Our source for the Km values is article PMC12172877, “Reverse prenylation in plants by non‐canonical aromatic prenyltransferases” (The Plant Journal, 2025).

Like-named read-outs stand apart in the source and are kept apart here.

What all share (experiment): Michaelis-Menten kinetics, yeast microsomes, HPLC of product […]
For assay [1], the system named is T1, HsRPThxa.
T1 construct: gene RPThxa; full-length, 1176 bp ORF, pESC-URA, yeast INVSc1 microsomes
In kind it is biochemical, Hypericum sampsonii. The settings on record: Mg2+, optimum pH 9.0-9.5, 35 °C, read-out: apparent KM.

The test system of assay [2] is T2, HsRPThxa-tr.
T2 construct: gene RPThxa; lacks the N-terminal 24 residues (transit peptide), yeast microsomes
Format: biochemical, Hypericum sampsonii. The settings on record: optimum pH 9.0-10.0, 40 °C, read-out: apparent KM.

Assay [3] deals with T3, HpRPThxa.
T3 construct: gene RPThxa; full-length, 1173 bp ORF, pESC-URA, yeast INVSc1 microsomes
In kind it is biochemical, Hypericum perforatum. The settings on record: Mg2+, optimum pH 9.0-9.5, 40 °C, read-out: apparent KM.

[4] abbreviates: formation of hyperixanthone A (C-4 reverse prenylation), co-substrate DMAPP.

For orientation: Km means the substrate concentration at which the rate is half of its maximum. In the case of `CC(C)=CCOP(=O)(O)OP(=O)(O)O` [DMAPP], the figures for the Km in assay [1] (co-substrate patulone), in assay [2] (co-substrate patulone) and in assay [3] (co-substrate patulone) were 102 ± 6.35 µM, 30.9 ± 2.58 µM and 260 ± 22.9 µM, respectively.

As to `CC(C)=CCC1(CC=C(C)C)C(=O)C(O)=Cc2oc3cc(O)cc(O)c3c(=O)c21` [compound 2, patulone], the values for the Km in assay [1] (setting [4]), in assay [2] (co-substrate DMAPP) and in assay [3] (setting [4]) were 52.4 ± 4.16 µM, 31.3 ± 4.05 µM and 46 ± 4.43 µM, respectively.
